{"source": "ChEMBL document CHEMBL2062425", "about": "“Synthesis and in vitro evaluation of α-synuclein ligands” (Bioorg Med Chem, 2012)", "target": "Alpha-synuclein (Homo sapiens, UniProt P37840)", "test": "biochemical"}
{"smiles": "c1ccc2c(c1)Nc1ccccc1S2", "note": "[PHENOTHIAZINE]", "values": [{"measurement": "IC50", "value": 26, "unit": "µM"}, {"measurement": "Ki", "value": "> 0.5", "unit": "µM"}]}
